Data published in patent US20230002375A1, “HYDROPYRAZINO[1,2-B]ISOQUINOLINE COMPOUNDS FOR THE TREATMENT OF AUTOIMMUNE DISEASE” (Hoffmann-La Roche Inc., priority 2019, published 2023).

target: T1, human TLR9 (Homo sapiens, UniProt Q9NR96); experiment: HEK293-Blue-hTLR-9 cells assay (SEAP reporter, ODN2006 stimulation); type: cell-based; details: HEK293-Blue-hTLR9 cells, ODN2006, 20 hrs incubation; read-out: HEK/hTLR9 IC50
T1 sequence (Q9NR96 26-1032): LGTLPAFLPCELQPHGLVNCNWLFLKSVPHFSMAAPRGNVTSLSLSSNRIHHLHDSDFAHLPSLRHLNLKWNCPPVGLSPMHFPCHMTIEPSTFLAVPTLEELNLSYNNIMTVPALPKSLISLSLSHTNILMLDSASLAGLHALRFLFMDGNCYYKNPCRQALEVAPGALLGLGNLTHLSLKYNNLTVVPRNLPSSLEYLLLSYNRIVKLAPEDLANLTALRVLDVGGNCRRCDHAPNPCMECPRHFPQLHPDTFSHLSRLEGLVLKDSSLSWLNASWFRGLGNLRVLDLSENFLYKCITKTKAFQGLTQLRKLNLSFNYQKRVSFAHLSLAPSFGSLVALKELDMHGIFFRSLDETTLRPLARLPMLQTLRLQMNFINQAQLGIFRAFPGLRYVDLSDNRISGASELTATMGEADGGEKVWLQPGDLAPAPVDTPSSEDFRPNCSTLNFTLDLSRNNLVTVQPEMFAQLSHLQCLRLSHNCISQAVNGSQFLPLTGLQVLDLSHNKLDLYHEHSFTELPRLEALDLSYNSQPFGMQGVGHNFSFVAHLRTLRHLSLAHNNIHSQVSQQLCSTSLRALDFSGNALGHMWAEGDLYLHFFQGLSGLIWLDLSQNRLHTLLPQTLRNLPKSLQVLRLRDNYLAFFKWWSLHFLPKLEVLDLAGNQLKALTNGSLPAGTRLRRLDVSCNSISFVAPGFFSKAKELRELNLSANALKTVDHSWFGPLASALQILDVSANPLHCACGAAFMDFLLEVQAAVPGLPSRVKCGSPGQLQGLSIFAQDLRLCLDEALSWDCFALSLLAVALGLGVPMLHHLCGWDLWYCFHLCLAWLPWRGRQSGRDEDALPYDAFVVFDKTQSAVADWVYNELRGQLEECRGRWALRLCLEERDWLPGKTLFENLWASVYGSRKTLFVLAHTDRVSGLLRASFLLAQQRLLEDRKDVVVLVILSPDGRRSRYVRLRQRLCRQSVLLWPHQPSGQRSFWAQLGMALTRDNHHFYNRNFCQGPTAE
Method: The following tests were carried out in order to determine the activity of the compounds of formula (I), (Ia) or (Ib) in HEK293-Blue-hTLR-7/8/9 cells assay.
HEK293-Blue-hTLR-9 Cells Assay:
A stable HEK293-Blue-hTLR-9 cell line was purchased from InvivoGen (Cat.#: hkb-htlr9, San Diego, Calif., USA). These cells were originally designed for studying the stimulation of human TLR9 by monitoring the activation of NF-κB. A SEAP (secreted embryonic alkaline phosphatase) reporter gene was placed under the control of the IFN-β minimal promoter fused to five NF-κB and AP-1-binding sites. The SEAP was induced by activating NF-κB and AP-1 via stimulating HEK-Blue hTLR9 cells with TLR9 ligands. Therefore the reporter expression was declined by TLR9 antagonist under the stimulation of a ligand, such as ODN2006 (Cat.#: tlrl-2006-1, Invivogen, San Diego, Calif., USA), for incubation of 20 hrs. The cell culture supernatant SEAP reporter activity was determined using QUANTI-Blue™ kit (Cat.#: rep-qb1, Invivogen, San Diego, Calif., USA) at a wavelength of 640 nm, a detection medium that turns purple or blue in the presence of alkaline phosphatase.
HEK293-Blue-hTLR9 cells were incubated at a density of 250,000-450,000 cells/mL in a volume of 170 μL in a 96-well plate in Dulbecco's Modified Eagle's medium (DMEM) containing 4.5 g/L glucose, 50 U/mL penicillin, […], 2 mM L-glutamine, 10% (v/v) heat-inactivated fetal bovine serum with addition of 20 μL test compound in a serial dilution in the presence of final DMSO at 1% and 10 μL of 20 uM ODN2006 in above DMEM, perform incubation under 37° C. in a CO2 incubator for 20 hrs. Then 20 μL of the supernatant from each well was incubated with 180 μL Quanti-blue substrate solution at 37° C. for 2 h and the absorbance was read at 620-655 nm using a spectrophotometer. The signaling pathway that TLR9 activation leads to downstream NF-κB activation has been widely accepted, and therefore similar reporter assay was modified for evaluating TLR9 antagonist.

Q: How did the IC50 turn out when `C[C@@H]1CN(c2ccc(C#N)c3ncccc23)C[C@@H]2Cc3cc(OC[C@@H]4CCN4)ccc3CN21` [Example 12, 5-[(4R,11aS)-9-[[(2S)-azetidin-2-yl]methoxy]-4-methyl-1,3,4,6,11,11a-hexahydropyrazino[1,2-b]isoquinolin-2-yl]quinoline-8-carbonitrile] was run?
A: Its IC50 is 0.116 µM.

Q: With `C[C@@H]1CN(c2ccc(C#N)c3ncccc23)C[C@@H]2Cc3cc(N4CC(N)CC4=O)ccc3CN21` (stereo partly drawn) [Example 16, 5-[(4R,11aS)-9-(4-amino-2-oxo-pyrrolidin-1-yl)-4-methyl-1,3,4,6,11,11a-hexahydropyrazino[1,2-b]isoquinolin-2-yl]quinoline-8-carbonitrile] as the compound, how does the IC50 read?
A: Its IC50 is 0.125 µM.

Q: How did the IC50 turn out when `CO[C@H]1CNC[C@H]1Nc1ccc2c(c1)C[C@H]1CN(c3ccc(C#N)c4ncccc34)C[C@@H](C)N1C2` [Example 7, 5-[(4R,11aS)-9-[[(3R,4S)-4-methoxypyrrolidin-3-yl]amino]-4-methyl-1,3,4,6,11,11a-hexahydropyrazino[1,2-b]isoquinolin-2-yl]quinoline-8-carbonitrile] was run?
A: The IC50 was 0.109 µM.

Q: How did the IC50 turn out when `C[C@@H]1CN(c2ccc(C#N)c3ncccc23)C[C@@H]2Cc3ccc(NCCN4CC[C@H](O)C4)cc3CN21` [Example 2, 5-[(4R,11aS)-8-[2-[(3S)-3-hydroxypyrrolidin-1-yl]ethylamino]-4-methyl-1,3,4,6,11,11a-hexahydropyrazino[1,2-b]isoquinolin-2-yl]quinoline-8-carbonitrile] was run?
A: The IC50 was 0.0445 µM.

Q: How did the IC50 turn out when `C[C@@H]1CN(c2ccc(C#N)c3ncccc23)C[C@@H]2Cc3ccc(N4CCOCC(N)C4)cc3CN21` (stereo partly drawn) [Example 1, 5-[(4R,11aS)-8-(6-amino-1,4-oxazepan-4-yl)-4-methyl-1,3,4,6,11,11a-hexahydropyrazino[1,2-b]isoquinolin-2-yl]quinoline-8-carbonitrile] was run?
A: The IC50 was 0.0646 µM.

Q: With `C[C@@H]1CN(c2ccc(C#N)c3ncccc23)C[C@@H]2Cc3cc(N4C[C@@H]5C[C@H]4CN5C(=O)C(C)(C)N)ccc3CN21` [Example 15, 5-[(4R,11aS)-9-[(1S,4S)-5-(2-amino-2-methyl-propanoyl)-2,5-diazabicyclo[2.2.1]heptan-2-yl]-4-methyl-1,3,4,6,11,11a-hexahydropyrazino[1,2-b]isoquinolin-2-yl]quinoline-8-carbonitrile] as the compound, how does the IC50 read?
A: Its IC50 is 0.125 µM.

Q: How did the IC50 turn out when `C[C@@H]1CN(c2ccc(C#N)c3ncccc23)C[C@@H]2Cc3cc(N4CC5CCNCC5C4=O)ccc3CN21` (stereo partly drawn) [Example 18, 5-[(4R,11aS)-4-methyl-9-(3-oxo-3a,4,5,6,7,7a-hexahydro-1H-pyrrolo[3,4-c]pyridin-2-yl)-1,3,4,6,11,11a-hexahydropyrazino[1,2-b]isoquinolin-2-yl]quinoline-8-carbonitrile] was run?
A: The IC50 was 0.0646 µM.

Q: For `C[C@@H]1CN(c2ccc(C#N)c3ncccc23)C[C@@H]2Cc3cc(N4C[C@@H]5CNCCN5C4=O)ccc3CN21` (single isomer, unassigned) [Example 17A], which IC50 is on record?
A: Its IC50 is 0.107 µM.

Q: How did the IC50 turn out when `C[C@@H]1CN(c2ccc(C#N)c3ncccc23)C[C@@H]2Cc3ccc(OCCN(C)C)cc3CN21` [Example 5, 5-[(4R,11aS)-8-[2-(dimethylamino)ethoxy]-4-methyl-1,3,4,6,11,11a-hexahydropyrazino[1,2-b]isoquinolin-2-yl]quinoline-8-carbonitrile] was run?
A: Its IC50 is 0.0963 µM.

Q: How did the IC50 turn out when `C[C@@H]1CN(c2ccc(C#N)c3ncccc23)C[C@@H]2Cc3cc(N4C[C@H]5CNCCN5C4=O)ccc3CN21` (single isomer, unassigned) [Example 17B] was run?
A: The IC50 was 0.106 µM.

Q: Which IC50 does the source give for `C[C@@H]1CN(c2ccc(C#N)c3ncccc23)C[C@@H]2Cc3cc(N4C[C@@H](F)[C@@H](N)C4)ccc3CN21` [Example 8, 5-[(4R,11aS)-9-[(3S,4R)-3-amino-4-fluoro-pyrrolidin-1-yl]-4-methyl-1,3,4,6,11,11a-hexahydropyrazino[1,2-b]isoquinolin-2-yl]quinoline-8-carbonitrile] here?
A: The IC50 was 0.0853 µM.

Q: For `C[C@@H]1CN(c2ccc(C#N)c3ncccc23)C[C@@H]2Cc3cc(N4CCN(C(=O)[C@]5(C)CCCN5)CC4)ccc3CN21` [Example 14, 5-[(4R,11aS)-4-methyl-9-[4-[(2S)-2-methylpyrrolidine-2-carbonyl]piperazin-1-yl]-1,3,4,6,11,11a-hexahydropyrazino[1,2-b]isoquinolin-2-yl]quinoline-8-carbonitrile], which IC50 is on record?
A: The IC50 was 0.254 µM.

Q: For `C[C@@H]1CN(c2ccc(C#N)c3ncccc23)C[C@@H]2Cc3cc(N4CC5CNCCC5C4=O)ccc3CN21` (stereo partly drawn) [Example 19, 5-[(4R,11aS)-4-methyl-9-(1-oxo-3a,4,5,6,7,7a-hexahydro-3H-pyrrolo[3,4-c]pyridin-2-yl)-1,3,4,6,11,11a-hexahydropyrazino[1,2-b]isoquinolin-2-yl]quinoline-8-carbonitrile], which IC50 is on record?
A: Its IC50 is 0.0445 µM.

Q: `CO[C@H]1CN(c2ccc3c(c2)C[C@H]2CN(c4ccc(C#N)c5ncccc45)C[C@@H](C)N2C3)C[C@H]1N` [Example 9, 5-[(4R,11aS)-9-[(3R,4S)-3-amino-4-methoxy-pyrrolidin-1-yl]-4-methyl-1,3,4,6,11,11a-hexahydropyrazino[1,2-b]isoquinolin-2-yl]quinoline-8-carbonitrile] was tested. Which IC50 did it give?
A: The IC50 was 0.139 µM.

Q: Which IC50 does the source give for `C[C@@H]1CN(c2ccc(C#N)c3ncccc23)C[C@@H]2Cc3cc(OCCN(C)C)ccc3CN21` [Example 11, 5-[(4R,11aS)-9-[2-(dimethylamino)ethoxy]-4-methyl-1,3,4,6,11,11a-hexahydropyrazino[1,2-b]isoquinolin-2-yl]quinoline-8-carbonitrile] here?
A: Its IC50 is 0.081 µM.

Q: For `C[C@@H]1CN(c2ccc(C#N)c3ncccc23)C[C@@H]2Cc3cc(N[C@@H]4CNC[C@@H]4F)ccc3CN21` [Example 6, 5-[(4R,11aS)-4-methyl-9-[[(3R,4S)-4-fluoropyrrolidin-3-yl]amino]-1,3,4,6,11,11a-hexahydropyrazino[1,2-b]isoquinolin-2-yl]quinoline-8-carbonitrile], which IC50 is on record?
A: The IC50 was 0.106 µM.

Q: Which IC50 does the source give for `C[C@@H]1CN(c2ccc(C#N)c3ncccc23)C[C@@H]2Cc3cc(N4CCN(C(=O)C(C)(C)N)CC4)ccc3CN21` [Example 13, 5-[(4R,11aS)-9-[4-(2-amino-2-methyl-propanoyl)piperazin-1-yl]-4-methyl-1,3,4,6,11,11a-hexahydropyrazino[1,2-b]isoquinolin-2-yl]quinoline-8-carbonitrile] here?
A: Its IC50 is 0.0856 µM.

Q: For `C[C@@H]1CN(c2ccc(C#N)c3ncccc23)C[C@@H]2Cc3cc(N4CC5NCCOC5C4)ccc3CN21` (stereo in doubt) [Example 10, 5-[(4R,11aS)-9-[(4aS,7aS)-3,4,4a,5,7,7a-hexahydro-2H-pyrrolo[3,4-b][1,4]oxazin-6-yl]-4-methyl-1,3,4,6,11,11a-hexahydropyrazino[1,2-b]isoquinolin-2-yl]quinoline-8-carbonitrile], which IC50 is on record?
A: The IC50 was 0.0782 µM.
